Laboratory results: the supplement of paper PMC8671470

Legend:
Conditions in all cases: 72 h
KU-812 [1] = experiment: cell viability (% survival relative to DMSO control, bortezomib = 0%); higher = less cytotoxic
Summary of the method: (§1)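 Seeding density for each of the 10 AML and 5 CML cell lines was titrated to the linear growth range. Cells went into 384-well plates pre-printed in duplicate with compounds at 1, 10, 100, 1000 or 10000 nM and were held for 72 h at 37 °C with 5% CO2. CellTiter-Glo luminescence then provided the readout. Percent survival is expressed relative to vehicle at 100% and a 10 µM positive control at 0%, averaged over duplicates.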

SHI-1 [2] = experiment: as above
Summary of the method: as §1

KCL-22 [3] = experiment: as above
Summary of the method: as §1

LAMA-84 [4] = experiment: as above
Summary of the method: as §1

Mono-Mac-6 [5] = experiment: as above
Summary of the method: as §1

HL-60 [6] = experiment: as above
Summary of the method: as §1

MV4-11 [7] = experiment: as above
Summary of the method: as §1

K-562 [8] = experiment: as above
Summary of the method: as §1

MOLM-13 [9] = experiment: as above
Summary of the method: as §1

NOMO-1 [10] = experiment: as above
Summary of the method: as §1

KG-1 [11] = experiment: as above
Summary of the method: as §1

HEL [12] = experiment: as above
Summary of the method: as §1

BV-173 [13] = experiment: as above
Summary of the method: as §1

THP-1 [14] = experiment: as above
Summary of the method: as §1

ML-2 [15] = experiment: as above
Summary of the method: as §1

KU-812 [16] = tested on: KU-812
Summary of the method: (§2)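 Fifteen myeloid leukaemia lines were incubated for 72 h at 37 °C with 5% CO2 across five tenfold doses from 1 to 10,000 nM, in duplicate. ATP luminescence was normalised to vehicle and to a positive control at 10 µM and fitted with a four-parameter log-logistic model. The IC50 came from these dose–response fits.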

SHI-1 [17] = tested on: SHI-1
Summary of the method: as §2

KCL-22 [18] = tested on: KCL-22
Summary of the method: as §2

LAMA-84 [19] = tested on: LAMA-84
Summary of the method: as §2

Mono-Mac-6 [20] = tested on: Mono-Mac-6
Summary of the method: as §2

HL-60 [21] = tested on: HL-60
Summary of the method: as §2

MV4-11 [22] = tested on: MV4-11
Summary of the method: as §2

K-562 [23] = tested on: K-562
Summary of the method: as §2

MOLM-13 [24] = tested on: MOLM-13
Summary of the method: as §2

NOMO-1 [25] = tested on: NOMO-1
Summary of the method: as §2

KG-1 [26] = tested on: KG-1
Summary of the method: as §2

HEL [27] = tested on: HEL
Summary of the method: as §2

BV-173 [28] = tested on: BV-173
Summary of the method: as §2

THP-1 [29] = tested on: THP-1
Summary of the method: as §2

ML-2 [30] = tested on: ML-2
Summary of the method: as §2

O=c1c(-c2ccc(O)cc2)coc2cc(O[C@@H]3O[C@H](CO)[C@@H](O)[C@H](O)[C@H]3O)ccc12 [Daidzin]
cell viability [%]
Conditions	1 nM	10 nM	100 nM	1000 nM	10000 nM
BV-173 [13]	94	87.4	92.4	125	91.8
HEL [12]	93	93.7	107	105	102
HL-60 [6]	107	99.6	100	93.9	92.7
K-562 [8]	92.1	98.9	98.5	111	106
KCL-22 [3]	88.6	98.9	103	109	111
KG-1 [11]	99	96.6	100	97.6	98.6
KU-812 [1]	90.9	93.6	100	99.5	87.5
LAMA-84 [4]	102	91	96.8	99.2	97.9
ML-2 [15]	103	90.1	95.8	112	97.8
MOLM-13 [9]	83.9	107	105	99.8	99.3
MV4-11 [7]	91.6	84	106	133	98.8
Mono-Mac-6 [5]	90.8	88.2	94.6	107	83.2
NOMO-1 [10]	93.4	99.7	99.4	101	103
SHI-1 [2]	93.7	106	108	107	103
THP-1 [14]	97.8	98.5	97.5	106	95.4

Conditions	IC50 (cell viability) [µM]
BV-173 [28]	> 10
HEL [27]	> 10
HL-60 [21]	> 10
K-562 [23]	> 10
KCL-22 [18]	> 10
KG-1 [26]	> 10
KU-812 [16]	> 10
LAMA-84 [19]	> 10
ML-2 [30]	> 10
MOLM-13 [24]	> 10
MV4-11 [22]	> 10
Mono-Mac-6 [20]	> 10
NOMO-1 [25]	> 10
SHI-1 [17]	> 10
THP-1 [29]	> 10
